Measured values published in patent publication US20200253929A1, “TREATMENT OF EPILEPSY” (priority 2017, published 2020).

How the values were obtained:
HEPG2 cells = assay: Cell viability MTT assay, HEPG2 cells; format: cell-based, human; details: 24 h incubation; for IC50: read-out: Cytotoxicity HEPG2 cells IC50
Description: (§1) Protocol was based on literature [Patel and Patel. (2011) J. App. Pharm. Sci 1, 167-171]. Three cell lines were used: a) Hep G2 (HB-8065), a well-differentiated human hepatocellular carcinoma cell line, b) THLE-2, human liver epithelial cells transformed with SV40 large T-antigen and c) SHSYSY, a thrice-cloned sub-line of a human metastatic bone tumor. Cells were seeded at a concentration of 1×10^4 cells/well in 200 μL culture medium and incubated at 37° C. in 5% CO2 using 96-well plates for 24 h. Next, the medium was replaced with medium complemented with test compounds. After another 24 h incubation, the medium was replaced by 100 μL of a MTT (3-(4,5-dimethylthiazol-2-yl)-2,5-diphenyltetrazolium bromide) solution (5 mg/mL in PBS and diluted at 0.5 mg/mL in MEM without phenol red). The plates were gently shaken and incubated for 3 hours at 37° C. in a 5% CO2 incubator. The supernatant was removed and 100 μL of 100% DMSO was added. The plates were gently shaken to solubilize the formed formazan. The absorbance was measured using a multireader (Victor2 (Wallac)) at a wavelength of 570 nm.

hERG channel = biological target: T1, hERG channel (Homo sapiens, UniProt Q12809); assay: Cardiotoxicity fluorescence-based assay, hERG channel; format: cell-based; details: HEK293 cells
T1 construct: expressed in transfected cells; host or cells: HEK293
T1 sequence (Q12809 whole entry): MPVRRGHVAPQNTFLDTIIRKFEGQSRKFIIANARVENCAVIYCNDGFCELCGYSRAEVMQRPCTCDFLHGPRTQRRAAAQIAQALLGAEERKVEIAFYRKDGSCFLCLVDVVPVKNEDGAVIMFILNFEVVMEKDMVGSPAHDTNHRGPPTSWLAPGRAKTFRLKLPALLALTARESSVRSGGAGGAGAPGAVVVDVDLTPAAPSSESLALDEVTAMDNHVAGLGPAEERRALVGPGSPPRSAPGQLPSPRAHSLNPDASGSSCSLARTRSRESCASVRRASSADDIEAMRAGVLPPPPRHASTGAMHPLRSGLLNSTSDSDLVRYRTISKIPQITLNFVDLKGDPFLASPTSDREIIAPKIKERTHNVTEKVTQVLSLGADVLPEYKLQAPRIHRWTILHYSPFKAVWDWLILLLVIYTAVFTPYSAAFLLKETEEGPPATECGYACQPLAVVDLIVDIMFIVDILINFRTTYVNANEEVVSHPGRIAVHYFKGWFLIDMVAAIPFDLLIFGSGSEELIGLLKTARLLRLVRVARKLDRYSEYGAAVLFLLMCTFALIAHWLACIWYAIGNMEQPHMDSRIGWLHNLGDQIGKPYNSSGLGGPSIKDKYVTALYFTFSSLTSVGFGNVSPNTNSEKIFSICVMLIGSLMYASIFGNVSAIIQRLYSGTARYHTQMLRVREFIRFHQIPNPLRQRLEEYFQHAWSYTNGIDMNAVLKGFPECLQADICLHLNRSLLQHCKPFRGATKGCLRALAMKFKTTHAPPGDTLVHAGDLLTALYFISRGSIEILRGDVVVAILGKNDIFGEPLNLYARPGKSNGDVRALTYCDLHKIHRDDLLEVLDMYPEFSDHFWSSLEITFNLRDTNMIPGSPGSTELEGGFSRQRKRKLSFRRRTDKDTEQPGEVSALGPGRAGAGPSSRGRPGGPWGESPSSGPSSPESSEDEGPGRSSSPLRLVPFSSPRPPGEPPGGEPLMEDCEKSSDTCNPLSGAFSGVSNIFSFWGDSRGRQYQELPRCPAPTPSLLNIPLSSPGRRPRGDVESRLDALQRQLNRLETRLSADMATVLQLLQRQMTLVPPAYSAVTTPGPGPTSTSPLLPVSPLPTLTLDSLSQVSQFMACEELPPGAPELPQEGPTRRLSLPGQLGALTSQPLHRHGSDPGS
Description: (§2) Fluorescence-based assays were performed using HEK293 cell lines that stably express the Nav1.5-channel, Cav1.2-channel or hERG K+-channel, using FMP Red Dye (Molecular Devices), calcium-sensitive fluorescent dye Fluo-4 (Invitrogen) and FIuxOR™ reagent (Invitrogen), respectively, and a FLIPR Tetra High-Throughput Cellular Screening System (Molecular Devices), according to manufacturer's protocols (Molecular Devices). Tetrodotoxin (TTX), israpidine and nicarpidine, and astemizole and haloperidol were used as standard sodium channel, calcium channel, and hERG channel blockers. Data were analyzed using Genedata Screener.

THLE2 cells = assay: Cell viability MTT assay, THLE2 cells; format: cell-based, human; details: 24 h incubation; for IC50: read-out: Cytotoxicity THLE2 cells IC50
Description: as §1

Kinetic solubility assay = format: physicochemical; details: for Kinetic solubility: 2 h incubation, absorbance 620 nm
Description: Protocol was based on literature [Perez et al. (2015) J Biomol Screen 20, 254-264]. The kinetic solubility assay was conducted in 96-well, flat-bottom, transparent polystyrene plates (Costar 9018, Corning, Tewksbury, Mass.). Six two-fold serial dilutions of an initial 10 mM test compound solution were prepared in DMSO. After a 2 h incubation period (to avoid missing slow precipitation) absorbance was measured at 620 nm by an EnVision multilabel plate reader. The kinetic solubility was estimated from the concentration of test compound that produced an increase in absorbance above the background levels (i.e. 1% DMSO in buffer).

SHSY5Y cells = assay: Cell viability MTT assay, SHSY5Y cells; format: cell-based, human; details: 24 h incubation; for IC50: read-out: Cytotoxicity SHSY5Y cells IC50
Description: as §1

Cav1.2 channel = biological target: T2, Cav1.2 channel (Homo sapiens, UniProt Q13936); assay: Cardiotoxicity fluorescence-based assay, Cav1.2 channel; format: cell-based; details: HEK293 cells
T2 construct: expressed in transfected cells; host or cells: HEK293
T2 sequence (P54289 25-1103): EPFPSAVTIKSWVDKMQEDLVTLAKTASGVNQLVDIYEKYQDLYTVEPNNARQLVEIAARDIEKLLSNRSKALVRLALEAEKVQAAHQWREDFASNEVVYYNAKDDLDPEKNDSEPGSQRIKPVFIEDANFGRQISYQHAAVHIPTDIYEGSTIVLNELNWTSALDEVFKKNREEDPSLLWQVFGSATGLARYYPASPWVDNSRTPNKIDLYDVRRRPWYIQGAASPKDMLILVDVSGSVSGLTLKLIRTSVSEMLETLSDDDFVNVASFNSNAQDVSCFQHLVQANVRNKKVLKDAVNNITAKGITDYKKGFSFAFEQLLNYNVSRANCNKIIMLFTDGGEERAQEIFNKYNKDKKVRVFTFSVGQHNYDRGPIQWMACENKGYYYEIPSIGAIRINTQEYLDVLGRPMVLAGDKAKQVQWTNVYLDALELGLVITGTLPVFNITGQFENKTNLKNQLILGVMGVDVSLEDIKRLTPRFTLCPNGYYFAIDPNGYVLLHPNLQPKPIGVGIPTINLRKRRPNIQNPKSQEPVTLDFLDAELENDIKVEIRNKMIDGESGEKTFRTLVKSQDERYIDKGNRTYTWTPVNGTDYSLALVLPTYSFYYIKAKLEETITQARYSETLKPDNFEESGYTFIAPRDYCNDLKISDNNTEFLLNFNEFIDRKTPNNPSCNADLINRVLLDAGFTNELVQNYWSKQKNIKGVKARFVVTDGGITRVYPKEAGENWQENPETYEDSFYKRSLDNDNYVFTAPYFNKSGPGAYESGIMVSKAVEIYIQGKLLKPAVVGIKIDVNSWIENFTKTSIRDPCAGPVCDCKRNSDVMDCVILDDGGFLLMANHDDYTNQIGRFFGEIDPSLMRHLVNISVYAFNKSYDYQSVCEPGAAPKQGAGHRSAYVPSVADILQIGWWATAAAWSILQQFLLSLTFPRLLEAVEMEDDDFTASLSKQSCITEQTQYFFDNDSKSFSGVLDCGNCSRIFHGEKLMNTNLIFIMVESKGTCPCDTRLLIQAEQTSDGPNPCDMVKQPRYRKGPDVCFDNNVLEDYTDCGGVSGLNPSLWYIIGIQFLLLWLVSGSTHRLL
T2 sequence (Q08289 whole entry, further chain): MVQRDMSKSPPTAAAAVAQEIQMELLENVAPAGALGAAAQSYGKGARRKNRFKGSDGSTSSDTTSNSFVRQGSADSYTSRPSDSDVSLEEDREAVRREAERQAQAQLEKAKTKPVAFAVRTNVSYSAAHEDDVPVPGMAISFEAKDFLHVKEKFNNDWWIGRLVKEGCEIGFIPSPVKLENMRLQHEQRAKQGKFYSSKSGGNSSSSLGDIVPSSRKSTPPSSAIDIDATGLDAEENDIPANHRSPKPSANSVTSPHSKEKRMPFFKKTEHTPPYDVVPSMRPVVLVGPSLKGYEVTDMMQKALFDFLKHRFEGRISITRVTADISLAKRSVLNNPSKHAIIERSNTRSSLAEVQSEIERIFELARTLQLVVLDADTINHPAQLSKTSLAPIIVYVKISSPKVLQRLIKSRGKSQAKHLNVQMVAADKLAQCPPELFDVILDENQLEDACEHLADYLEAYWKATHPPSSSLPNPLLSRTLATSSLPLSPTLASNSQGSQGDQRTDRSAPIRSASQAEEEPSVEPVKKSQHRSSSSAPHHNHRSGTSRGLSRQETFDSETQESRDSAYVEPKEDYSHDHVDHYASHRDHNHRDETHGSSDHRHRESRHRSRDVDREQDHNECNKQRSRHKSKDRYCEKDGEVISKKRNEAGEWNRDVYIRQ
T2 sequence (Q13936 whole entry): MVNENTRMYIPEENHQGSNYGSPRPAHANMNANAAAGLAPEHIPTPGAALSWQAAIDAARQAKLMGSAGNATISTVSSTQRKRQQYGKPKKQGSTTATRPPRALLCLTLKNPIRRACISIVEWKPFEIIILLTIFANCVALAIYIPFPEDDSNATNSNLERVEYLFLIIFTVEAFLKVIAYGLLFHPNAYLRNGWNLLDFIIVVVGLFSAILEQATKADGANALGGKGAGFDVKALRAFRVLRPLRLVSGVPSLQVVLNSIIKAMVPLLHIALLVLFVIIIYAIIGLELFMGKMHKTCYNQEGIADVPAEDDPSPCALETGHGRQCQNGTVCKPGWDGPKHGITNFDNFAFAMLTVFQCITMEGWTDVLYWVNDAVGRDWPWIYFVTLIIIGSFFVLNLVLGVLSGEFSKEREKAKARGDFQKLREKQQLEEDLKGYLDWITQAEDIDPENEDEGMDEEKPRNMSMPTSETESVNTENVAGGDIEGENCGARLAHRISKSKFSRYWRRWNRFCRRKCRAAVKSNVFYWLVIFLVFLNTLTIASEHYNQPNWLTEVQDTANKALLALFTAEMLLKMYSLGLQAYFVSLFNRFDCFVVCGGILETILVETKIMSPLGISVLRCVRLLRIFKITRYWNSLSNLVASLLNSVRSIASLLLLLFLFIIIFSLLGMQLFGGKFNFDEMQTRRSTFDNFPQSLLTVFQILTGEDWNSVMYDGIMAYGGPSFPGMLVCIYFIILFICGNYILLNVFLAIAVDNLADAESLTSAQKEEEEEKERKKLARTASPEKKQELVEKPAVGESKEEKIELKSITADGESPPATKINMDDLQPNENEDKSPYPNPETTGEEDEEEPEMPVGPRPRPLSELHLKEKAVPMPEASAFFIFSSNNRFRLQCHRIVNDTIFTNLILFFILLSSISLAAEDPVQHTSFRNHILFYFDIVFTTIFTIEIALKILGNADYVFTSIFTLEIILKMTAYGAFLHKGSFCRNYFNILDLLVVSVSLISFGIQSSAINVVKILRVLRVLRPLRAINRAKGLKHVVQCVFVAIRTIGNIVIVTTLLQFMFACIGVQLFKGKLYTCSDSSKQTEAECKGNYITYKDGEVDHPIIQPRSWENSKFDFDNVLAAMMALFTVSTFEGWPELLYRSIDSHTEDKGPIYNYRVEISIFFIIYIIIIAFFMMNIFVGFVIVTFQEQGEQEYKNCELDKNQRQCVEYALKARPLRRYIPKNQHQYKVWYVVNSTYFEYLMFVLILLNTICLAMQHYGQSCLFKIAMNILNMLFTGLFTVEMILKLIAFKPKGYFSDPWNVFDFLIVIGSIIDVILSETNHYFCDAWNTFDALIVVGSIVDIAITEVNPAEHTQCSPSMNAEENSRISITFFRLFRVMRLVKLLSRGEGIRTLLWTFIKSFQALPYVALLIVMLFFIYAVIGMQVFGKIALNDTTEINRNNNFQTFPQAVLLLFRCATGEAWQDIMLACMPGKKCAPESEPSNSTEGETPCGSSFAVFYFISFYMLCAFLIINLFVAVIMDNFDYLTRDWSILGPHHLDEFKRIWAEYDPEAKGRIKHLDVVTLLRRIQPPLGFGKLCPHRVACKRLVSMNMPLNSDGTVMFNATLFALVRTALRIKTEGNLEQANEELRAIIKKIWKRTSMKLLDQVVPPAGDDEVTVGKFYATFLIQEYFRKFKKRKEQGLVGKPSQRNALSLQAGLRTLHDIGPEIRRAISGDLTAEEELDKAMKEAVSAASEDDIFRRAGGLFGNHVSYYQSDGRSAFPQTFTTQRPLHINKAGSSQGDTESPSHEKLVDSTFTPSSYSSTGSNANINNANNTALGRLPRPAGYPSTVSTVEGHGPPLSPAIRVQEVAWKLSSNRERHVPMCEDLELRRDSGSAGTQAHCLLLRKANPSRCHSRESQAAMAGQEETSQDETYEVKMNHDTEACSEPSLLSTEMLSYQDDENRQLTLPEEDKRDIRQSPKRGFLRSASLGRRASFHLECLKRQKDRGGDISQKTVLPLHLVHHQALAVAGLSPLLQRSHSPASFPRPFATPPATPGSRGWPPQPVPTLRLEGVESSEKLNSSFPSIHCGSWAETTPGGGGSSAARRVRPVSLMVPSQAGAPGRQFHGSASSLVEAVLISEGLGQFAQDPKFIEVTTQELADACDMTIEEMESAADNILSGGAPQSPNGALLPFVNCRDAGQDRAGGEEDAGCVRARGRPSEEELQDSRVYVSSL
Description: as §2

CYP3A4 = biological target: T3, CYP3A4 (Homo sapiens, UniProt P08684); assay: CYP450 enzyme inhibition assay, CYP3A4; format: in vitro ADME; details: human liver microsomes; for IC50: testosterone probe
T3 construct: containing Human Liver Microsomes (HLM) (0.5 mg/mL); from tissue; host or cells: human liver microsomes
Description: Protocol was based on literature [Perez-Del Palacio et al. (2017) Front Pharmacol 8, 202]. Assessment of CYP450 inhibition was conducted in 96-well plate format at 37° C. Test compounds were dissolved in DMSO/acetonitrile (2 μL) and diluted in 98 μL NADPH solution (2 mM). Reactions were started by addition of 100 μL potassium phosphate buffer (200 mM, pH 7.4) containing Human Liver Microsomes (HLM) (0.5 mg/mL). Probe reactions for CYP3A4, CYP2D6 and CYP2C9 were conducted with 50 μM testosterone, 22 μM dextromethorphan and 10 μM diclofenac for 15 min. Reactions were terminated with the addition of a quench solution (90 μL) of acetonitrile containing internal standards for LC-MS/MS determination (60 ppb cortisone, 100 ppb 4′-hydroxydiclofenac 13C6, 60 ppb levallorphan).

zebrafish larvae = assay: Zebrafish toxicity evaluation (maximum tolerated concentration); format: in vivo, Danio rerio; details: up to 18 hours exposure, 100 μg/mL used where no MTC was reached
Description: In case no MTC was reached, 100 μg/mL was used as the test concentration. In line with studies previously reported [Baraban et al. (2005) Neurosci 131, 759-768; Afrikanova et al. (2013) PLoS One 8, e54166], addition of the GABAA-receptor antagonist PTZ to the swimming water of 7 days post-fertilization (dpf) zebrafish larvae strongly elevated larval locomotion (p≤0.001) (FIGS. 2 and 3) as a result of induced seizures (or seizure-like behavior) that were recognized as typical high-speed swimming, whirlpool-like circling, clonus-like seizures, and loss of posture, as previously described in Baraban et al cited above.
Maximum tolerated concentration (MTC) was determined prior to further experiments and used as the highest test concentration. MTC was investigated by exposing 12 larvae of 6 days post-fertilization (dpf) to a range of concentrations in a 100 μL volume during 18 hours. The following parameters were investigated after 2 and 18 hours of exposure: touch response, morphology, posture, edema, signs of necrosis, swim bladder, and heartbeat. […] In case MTC was not reached, 100 μg/mL was used as the highest test concentration.

| SMILES | Cytotoxicity HEPG2 cells, effect (HEPG2 cells) | IC50 (HEPG2 cells) | Cardiotoxicity hERG channel, effect (hERG channel) | IC50 (hERG channel) | Cytotoxicity THLE2 cells, effect (THLE2 cells) | IC50 (THLE2 cells) | Kinetic solubility, rating (Kinetic solubility assay) | Kinetic solubility (Kinetic solubility assay) | Cytotoxicity SHSY5Y cells, effect (SHSY5Y cells) | IC50 (SHSY5Y cells) | Cardiotoxicity Cav1.2 channel, effect (Cav1.2 channel) | IC50 (Cav1.2 channel) | CYP3A4, effect (CYP3A4) | IC50 (CYP3A4) | MTC (maximum tolerated concentration) (zebrafish larvae) |
| --- | --- | --- | --- | --- | --- | --- | --- | --- | --- | --- | --- | --- | --- | --- | --- |
| CCc1ccc(C2=C(C)C(=O)C3(O2)C(=O)NC(OC)(C(=O)c2ccccc2)C3O)o1 (stereo not drawn) [azaspirofuran A] | No effect | > 50 µM | No effect | > 50 µM | Weak | > 50 µM | Acceptable | >100 µM | Weak | > 50 µM | No effect | > 50 µM | No effect | > 88 µM | 12.5 µg/mL |
| CC/C=C\[C@H](O)[C@H](O)C1=C(C)C(=O)[C@]2(O1)C(=O)N[C@](OC)(C(=O)c1ccccc1)[C@H]2O [pseurotin A2] | No effect | > 50 µM | No effect | > 50 µM | Weak | > 50 µM | Acceptable | >100 µM | Decrease | 17.9 µM | No effect | > 50 µM | No effect | > 88 µM | 12.5 µg/mL |
